Assay results reported in patent US20250345332A1, “APROCITENTAN FOR THE TREATMENT OF HYPERTENSION” (IDORSIA PHARMACEUTICALS LTD, priority 2022, published 2025).

How the values were obtained:
[1] = tested on: patients with resistant hypertension; assay: PRECISION phase 3 trial: safety assessments; format: in vivo, human; settings: for tolerability: 12.5 mg and 25 mg, up to 48 weeks; for treatment-emergent adverse events (TEAEs), patients: 4-week double-blind period, placebo 19.4%; for edema/fluid retention, patients: 4-week part 1, placebo 2.1%; for discontinuation from study treatment due to an adverse event: first 4 weeks double-blind, placebo 0.8%; for estimated plasma volume increase: placebo 0.51%
Protocol: A single, randomized study with three sequential treatment parts was designed. The study design addressed both the 4-week placebo-controlled efficacy of 12.5 and 25 mg aprocitentan (Part 1) and the durability of its effects in long-term active treatment with 25 mg aprocitentan for a further 32 weeks (Part 2) followed by a 12-week placebo-controlled withdrawal period with patients re-randomized to 25 mg or placebo (Part 3) (see for example Danaietash P et al; Identifying and treating resistant hypertension in PRECISION—a randomized long-term clinical trial with Aprocitentan. J Clin Hypertension 2022 (in press). Patients with uncontrolled BP (measured as unattended automated office BP) despite the use of three or more antihypertensive medications for at least 1 year were screened. They were switched to a single-tablet triple fixed combination antihypertensive therapy for at least 4 weeks before entering a single-blind placebo run-in period. The 4-week placebo run-in period further excluded placebo responders. The randomization period consisted of 3 sequential parts: • 1) a 4-week double-blind part with aprocitentan 12.5 mg, 25 mg, or placebo (1:1:1 ratio); • 2) a 32-week single-blind part with aprocitentan 25 mg; and • 3) a 12-week randomized withdrawal part with aprocitentan 25 mg or placebo (1:1 ratio).
• Part 1: Double-blind, randomized parallel-group and placebo-controlled and lasts for 4 weeks. Subjects received (1:1:1 ratio), 25 or 12.5 mg aprocitentan, or placebo. • Part 2: Single-blind and single-arm, lasts for 32 weeks. All subjects received aprocitentan 25 mg. • Part 3: Double-blind withdrawal. All subjects completing part 2 and entering part 3 are re-randomized (1:1 ratio) to either aprocitentan 25 mg or placebo.
Safety assessments include (treatment emergent) adverse events (TEAEs) including TEAEs leading to premature discontinuation of study treatment; adverse events of special interest (AESIs): hepatic disorders, anemia (or hemodilution), edema/fluid retention, and decompensation/aggravation of heart failure; treatment-emergent major adverse cardiovascular events (MACEs)/MACE-plus defined as cardiovascular death, non-fatal myocardial infarction (MI), or non-fatal stroke, or hear filure leading to hospitalization confirmed by the Central Adjudication Committee (CAC); as well as vital signs, body weight, clinical laboratory assessments, and 12-lead electrocardiograms.

[2] = tested on: rat models of hypertension; settings: cited from earlier work

NS(=O)(=O)Nc1ncnc(OCCOc2ncc(Br)cn2)c1-c1ccc(Br)cc1 [aprocitentan, {5-(4-bromo-phenyl)-6-[2-(5-bromo-pyrimidin-2-yloxy)-ethoxy]-pyrimidin-4-yl}-sulfamide]
tolerability [1]: generally well tolerated
tolerability ([1]; listed as Aprocitentan): generally well tolerated
treatment-emergent adverse events (TEAEs), patients ([1]; aprocitentan 12.5 mg): 27.6%
edema/fluid retention, patients ([1]; aprocitentan 12.5 mg): 9.1%
discontinuation from study treatment due to an adverse event ([1]; aprocitentan 12.5 mg): 2.5%
estimated plasma volume increase ([1]; aprocitentan 12.5 mg, part 1): 10.5%
haemoglobin concentration change ([1]; aprocitentan 12.5 mg, part 1, placebo −0.4): -8.0 g/L
treatment-emergent adverse events (TEAEs), patients ([1]; aprocitentan 25 mg): 36.7%
edema/fluid retention, patients ([1]; aprocitentan 25 mg): 18.4%
oedema or fluid retention, patients ([1]; aprocitentan 25 mg, 12-week part 3, placebo 1.3%): 2.6%
oedema or fluid retention, patients ([1]; aprocitentan 25 mg, 32-week part 2): 18.2%
discontinuation from study treatment due to an adverse event ([1]; aprocitentan 25 mg): 2.0%
admission to hospital for heart failure, patients ([1]; aprocitentan 25 mg, part 1 (two of 245)): 0.8%
patients who discontinued due to oedema or fluid retention ([1]; aprocitentan 25 mg, part 1, of 245 patients): one
estimated plasma volume increase ([1]; aprocitentan 25 mg, part 1): 11.2%
admission to hospital for heart failure, patients ([1]; aprocitentan 25 mg, part 2 (six of 704)): 0.9%
patients who discontinued due to oedema or fluid retention ([1]; aprocitentan 25 mg, part 2, of 704 patients): five
admission to hospital for heart failure, patients ([1]; aprocitentan 25 mg, part 3 (two of 310), placebo 0.3%): 0.6%
patients who discontinued due to oedema or fluid retention ([1]; aprocitentan 25 mg, part 3, of 310 patients): one
patients who discontinued treatment due to edema/fluid retention ([1]; aprocitentan 25 mg, parts 1-3, <1%): seven
bodyweight ([1]; both aprocitentan doses, part 1, decrease with placebo): moderate increase
serious edema/fluid retention adverse events ([1]; both on aprocitentan 25 mg, <1%): Two
edema/fluid retention events mild to moderate in intensity ([1]; entire study duration): > 95%
patients who developed edema/fluid retention at one time point ([1]; entire study duration): Approximately 30%
hepatotoxicity ([1]; in vivo): No signs
NT-proBNP and MR-proANP ([1]; part 1, stabilisation in part 2, reversal in part 3): Slight increases
eGFR ([1]; part 1 versus placebo): decreased slightly
decrease of hemoglobin value from baseline to week 36 ([1]; preliminary data, subjects with SGLT-2 inhibitor plus standardized antihypertensive background therapy, small sample size): smaller decrease
pharmacological effect in combination with ACE inhibitors such as enalapril ([2]; in certain models): synergistic
pharmacological effect in combination with angiotensin receptor blockers such as valsartan ([2]; rat, in vivo): synergistic
pharmacological effect in combination with calcium channel blockers such as amlodipine ([2]; rat, in vivo): additive
